System: MC3T3 H1 osteoblasts
Assay: Adhesion of MC3T3 H1 osteoblasts to V4A stainless steel shaped articles coated with acrylate peptide 3
Format: cell-based, mouse
Settings: for maximum adhesion rates: V4A stainless steel
Protocol: For testing the cell adhesion of osteoblasts to peptide-coated metal surfaces, V4A stainless steel shaped articles (7×7×1 mm^3) were provided with three different coating variants and in each case then coated in turn with RGD peptides. To do this, first the stainless steel shaped articles were incubated in an ultrasonic bath at 60° C. for 15 min for the purpose of cleaning, rinsed with demineralized water, incubated in acetone for 30 min, rinsed again with demineralized water and incubated at 60° C. for 24 hours for drying.
The stainless steel platelets were then coated by means of three variants:
The Kevloc® primer solution was thinly applied and incubated at room temperature for 3 min. Then the Kevloc® bond solution was likewise thinly applied and activated in a kiln at 180° C. for 20 min.
Since this coating variant directly makes available free acrylate radicals on the metal surface, it was then possible to directly covalently couple the acrylate peptide 3, types iiia, as was described in Example 3 for polymerized PMMA-bone cement.
The Siliseal® solution was thinly applied and dried at room temperature for 5 min. Then the Sililink solution was likewise thinly applied and activated in the kiln at 320° C. for 3 min.
To make available acrylate radicals on the coated metal surfaces, the pretreated stainless steel shaped articles were immersed in demineralized water heated to 75° C., adjusted to pH about 8.00 using NaOH. A 1% 3-methacryloxypropyltrimethoxysilane solution (Huls AG, Germany) was then metered in with strirring over a period of one hour until a pH of about 6.50 was achieved. The mixture was then stirred at 75° C. for one hour; the pH at this time was about 6.35.
The bonding of acrylate peptide 3, type iiia, was carried out as described in Example 3 for polymerized PMMA bone cement.
For this, the stainless steel shaped articles were immersed in demineralized water heated to 75° C., adjusted to pH about 8.00 using NaOH, and an AlCl3 solution was metered in with stirring over a period of two hours. Then a 5% sodium silicate solution was likewise metered in with stirring over two hours. In the following step, a 1% 3-methacryloxypropyltrimethoxysilane solution (Huls AG, Germany) was metered in with stirring in the course of one hour. The mixture was then stirred at 75° C. for one hour; the pH was at this time about 6.40.
After the stainless steel shaped articles had been coated with acrylate peptide 3, type iiia, by means of three different processes, the adhesion of osteoblasts of the line MC3T3 H1 was investigated. To do this, a procedure as described in Example 3 was used.

- EC50 (all three coating variants, read-out: half-maximal cell bindings, RGD peptide concentration in the coating solution): 1 to 100 nM
Substance: cyclo(RGDf[acrylic-ahx-tEG-K]) [acrylate peptide 3]
- maximum adhesion rates (Kevloc process): about 80%
- maximum adhesion rates (Silicoater process): about 80%
- maximum adhesion rates (pigment coating): about 60%
